# Experimental data reported in patent US8143246B2, “1-(4-(pyridin-2-yl)benzyl)imidazolidine-2,4-dione derivatives” (MSD OSS B.V., priority 2008, dated 2012).
# How the values were obtained:
# [1] = tested on: mechanical hyperalgesia induced by complete Freund's adjuvant in rats; assay: Mechanical hyperalgesia in the rat (CFA inflammatory pain); type: in vivo; conditions: for % Attenuation of hyperalgesia (peak effect): p.o., male Wistar rats, Randall-Sellito, 24 h after CFA, mean ± s.e.m.
# Experimental: Mechanical Hyperalgesia in the Rat
# In this rat model of inflammatory pain, inflammation is induced by subcutaneous injection of complete Freund's adjuvant (CFA) into the hind paw. The associated mechanical hyperalgesia is quantified by measuring the reduction in paw withdrawal threshold (PWT) to mechanical compression the paw.
# Experiments were conducted using male Wistar rats weighing (141-175 g). In brief, the rats' paw withdrawal threshold (PWT) to a mechanical compression of the hind paw was measured (baseline reading) using a Randall-Sellito apparatus (Ugo Basile). A cut-off of 20 g was employed to minimise tissue damage to the paw. The animals were then lightly anaesthetised with isoflurane (1-3%) and complete Freund's adjuvant (0.1 ml per paw) was injected subcutaneously (s.c.) into the plantar surface of the left hind paw. The animals were then returned to their home cage and left for the inflammation to develop. Twenty four hours after CFA injection, PWT's were re-measured (0 min) and immediately after this reading, rats were dosed orally with either vehicle or test compound (4.4-43.8 μmol/kg p.o. of compound 12). Readings were then made at 3 h post administration. Data were plotted as mean±s.e.m. and compared between groups using the Kruskal-Wallis one-way analysis of variance, a non-parametric statistical test. […] The percent attenuation of mechanical hyperalgesia is calculated as follows: […]
# [2] = tested on: mechanical allodynia induced by spinal nerve ligation in rats; assay: Rat (Chung) model of neuropathic pain; type: in vivo; conditions: for Withdrawal threshold (g) at peak effect: p.o., male Wistar rats, von Frey, mean ± s.e.m.
# Experimental: The Rat (Chung) Model of Neuropathic Pain
# In this model, mechanical allodynia is induced by tight ligation of the left L5 spinal nerve.
# Male Wistar rats (228-301 g body weight at time of surgery) were employed in the study. Rats were placed on an elevated (˜40 cm) mesh floor in perspex boxes and the rats' withdrawal threshold to a mechanical stimulus (calibrated von Frey filaments) was measured using filaments of increasing force (2.6-167 mN) as described above. The von Frey filaments were applied to the plantar surface of the paw and threshold response determined using the up and down method. A positive response was noted if the paw was sharply withdrawn. A cut-off of 15 g was selected as the upper limit for testing. Following baseline measurements each animal was anaesthetised and the L5 spinal nerve tightly ligated. The animals were allowed to recover from the surgery for a period of at least three days. On the day of drug administration the paw withdrawal thresholds were re-measured (0 min). Immediately after this reading, the rats were dosed orally with vehicle or test compound and readings measured at various time points after compound administration.
# Data were expressed as mean±s.e.m. Statistical analysis was performed using the Kruskal-Wallis one-way analysis of variance, a non-parametric statistical test. Each of the treatment groups were then compared against the vehicle group, using the non-parametric Dunn's test.
smiles,measurement,setting,value
"CC(C)CN1C(=O)CN(Cc2ccc(-c3cccc(CN4CCCCC4)n3)cc2)C1=O [Example 12, 3-Isobutyl-1-(4-(6-(piperidin-1-ylmethyl)pyridin-2-yl)benzyl)imidazolidine-2,4-dione]",Effect on mechanical hyperalgesia induced by CFA,"[1]; oral, 4.4-43.8 μmol/kg",reversed mechanical hyperalgesia induced by CFA in a dose-dependent fashion
same,MED,"[1]; oral, CFA-induced mechanical hyperalgesia",13.2 µmol/kg
same,% Attenuation of hyperalgesia (peak effect),[1]; 4.4 μmol/kg,58.64 ± 27.32%
same,% Attenuation of hyperalgesia (peak effect),"[1]; 13.2 μmol/kg, p ≦ 0.01 vs vehicle",69.70 ± 12.88 %
same,% Attenuation of hyperalgesia (peak effect),"[1]; 43.8 μmol/kg, p ≦ 0.001 vs vehicle",116.74 ± 23.78 %
same,Effect on mechanical allodynia,"[2]; oral, 120 and 180 min post drug administration",attenuated mechanical allodynia in a dose-dependent fashion
same,Minimum effective dose (MED),"[2]; oral, mechanical allodynia",43.8 µmol/kg
same,Withdrawal threshold (g) at peak effect,[2]; 4.4 μmol/kg,2.40 ± 0.64 g
same,Withdrawal threshold (g) at peak effect,[2]; 13.2 μmol/kg,4.32 ± 1.63 g
same,Withdrawal threshold (g) at peak effect,"[2]; 43.8 μmol/kg, p ≦ 0.01 vs vehicle",8.97 ± 2.21 g
